Measured values from patent publication US10952992B2, “Methods of treating intraocular pressure with activators of Tie-2” (Aerpio Pharmaceuticals, Inc., priority 2015, dated 2021).
Where “and” joins values, the source holds several entries; their conditions need not be identical. Equal values may be shown once.

Tested on: intraocular pressure in normotensive New Zealand White rabbits
Assay: Example 3 intraocular pressure after repeated topical and subcutaneous administration (pneumotonometer)
Format: in vivo
Set-up: IOP, individual animal / IOP, group Average: unit not given here
Description: To measure the tolerability and effect of Compound 1 (sodium salt) on intraocular pressure following repeated topical and subcutaneous administration, normotensive New Zealand White rabbits were treated with Compound 1 (sodium salt). Animals were acclimated 1 to 2 times per day to the intraocular pressure (IOP) measurement procedures prior to initiation of the study to determine baseline IOP levels. IOP acclimation was performed in the two weeks prior to study start for a total of 5 days. Animals with unacceptable IOP values were excluded from the study. Prior to taking all IOP measurements, 1 to 2 drops of a 0.5% proparacaine solution were applied to the eye as a topical anesthetic. OP measurements were performed with a pneumotonometer. Test and control formulations were administered to the animals once or twice daily topically into both eyes or subcutaneously starting on Day 1 according to TABLE 20 and TABLE 21 below. PM dosing, where applicable, was performed ˜8 hours after AM dosing. IOP measurements were performed twice (AM and PM) at baseline (prior to the start of dosing), twice (AM and PM) on Days 1 and 7, and once daily (AM) on Days 2-6 and Day 8. Prior to taking all IOP measurements, 1 to 2 drops of a 0.5% proparacaine solution were applied to the eye as a topical anesthetic. IOP measurements were performed with a pneumotonometer. AM IOP measurements were performed 2 hours after AM dosing; the only exceptions were Day 8 AM measurements, which were performed 24 hours after the final dose. PM IOP measurements were performed ˜5 hours (baseline and Day 1) or ˜4 hours (Day 7) after AM IOP measurements, prior to PM dosing, with at least 15 minutes elapsing between anesthetic application for PM IOP measurements and PM dosing. The final round of slit-lamp examinations was performed on Day 8.

[1] = Group 2: 0.45 mg/eye topical sodium salt BID, Day 1, AM, OD
[2] = Group 2: 0.45 mg/eye topical sodium salt BID, Day 1, AM, OS
[3] = Group 2: 0.45 mg/eye topical sodium salt BID, Day 1, PM, OD
[4] = Group 2: 0.45 mg/eye topical sodium salt BID, Day 1, PM, OS
[5] = Group 2: 0.45 mg/eye topical sodium salt BID, Day 2, AM, OD
[6] = Group 2: 0.45 mg/eye topical sodium salt BID, Day 2, AM, OS
[7] = Group 2: 0.45 mg/eye topical sodium salt BID, Day 3, AM, OD
[8] = Group 2: 0.45 mg/eye topical sodium salt BID, Day 3, AM, OS
[9] = Group 2: 0.45 mg/eye topical sodium salt BID, Day 4, AM, OD
[10] = Group 2: 0.45 mg/eye topical sodium salt BID, Day 4, AM, OS
[11] = Group 2: 0.45 mg/eye topical sodium salt BID, Day 5, AM, OD
[12] = Group 2: 0.45 mg/eye topical sodium salt BID, Day 5, AM, OS
[13] = Group 3: 1.2 mg/eye topical sodium salt BID, Day 1, AM, OD
[14] = Group 3: 1.2 mg/eye topical sodium salt BID, Day 1, AM, OS
[15] = Group 3: 1.2 mg/eye topical sodium salt BID, Day 1, PM, OD
[16] = Group 3: 1.2 mg/eye topical sodium salt BID, Day 1, PM, OS
[17] = Group 3: 1.2 mg/eye topical sodium salt BID, Day 2, AM, OD
[18] = Group 3: 1.2 mg/eye topical sodium salt BID, Day 2, AM, OS
[19] = Group 3: 1.2 mg/eye topical sodium salt BID, Day 3, AM, OD
[20] = Group 3: 1.2 mg/eye topical sodium salt BID, Day 3, AM, OS
[21] = Group 3: 1.2 mg/eye topical sodium salt BID, Day 4, AM, OD
[22] = Group 3: 1.2 mg/eye topical sodium salt BID, Day 4, AM, OS

## COC(=O)N[C@@H](Cc1ccccc1)C(=O)N[C@@H](Cc1ccc(NS(=O)(=O)O)cc1)c1csc(-c2cccs2)n1 [Compound 1]
[1]
  IOP, group Average: 22.1
  IOP, individual animal: 20.3 and 23.7 and 24.0 and 20.7 and 21.7
[2]
  IOP, group Average: 23.3
  IOP, individual animal: 20.7 and 23.3 (2×) and 25.2 and 23.8
[3]
  IOP, group Average: 25.5
  IOP, individual animal: 24.8 (2×) and 29.5 and 22.0 and 26.2
[4]
  IOP, group Average: 26.1
  IOP, individual animal: 24.8 and 24.2 and 28.8 and 25.3 and 27.2
[5]
  IOP, group Average: 21.9
  IOP, individual animal: 22.0 and 22.7 and 25.0 and 18.3 and 21.7
[6]
  IOP, group Average: 22.2
  IOP, individual animal: 21.8 and 22.3 and 24.3 and 20.8 and 21.5
[7]
  IOP, group Average: 24.0
  IOP, individual animal: 25.0 and 24.2 and 26.0 and 20.8 and 23.8
[8]
  IOP, group Average: 24.5
  IOP, individual animal: 25.3 and 23.5 and 26.0 and 23.0 and 24.5
[9]
  IOP, group Average: 23.9
  IOP, individual animal: 23.8 and 22.0 and 26.7 and 21.3 and 25.7
[10]
  IOP, group Average: 24.3
  IOP, individual animal: 23.0 and 22.7 and 26.3 and 23.5 and 26.2
[11]
  IOP, group Average: 25.2
  IOP, individual animal: 28.8 and 22.8 and 28.0 and 20.7 and 25.7
[12]
  IOP, group Average: 26.5
  IOP, individual animal: 28.8 and 25.0 and 28.0 and 24.2 and 26.3
Group 2: 0.45 mg/eye topical sodium salt BID, Day 6, AM, OD
  IOP, group Average: 25.5
Group 2: 0.45 mg/eye topical sodium salt BID, Day 6, AM, OS
  IOP, group Average: 25.4
Group 2: 0.45 mg/eye topical sodium salt BID, Day 7, AM, OD
  IOP, group Average: 23.7
Group 2: 0.45 mg/eye topical sodium salt BID, Day 7, AM, OS
  IOP, group Average: 24.5
Group 2: 0.45 mg/eye topical sodium salt BID, Day 7, PM, OD
  IOP, group Average: 25.1
Group 2: 0.45 mg/eye topical sodium salt BID, Day 7, PM, OS
  IOP, group Average: 25.6
Group 2: 0.45 mg/eye topical sodium salt BID, Day 8, AM (24 hours after final dose), OD
  IOP, group Average: 24.9
Group 2: 0.45 mg/eye topical sodium salt BID, Day 8, AM (24 hours after final dose), OS
  IOP, group Average: 25.1
[13]
  IOP, group Average: 22.0
  IOP, individual animal: 23.2 and 20.7 and 24.0
[14]
  IOP, group Average: 23.2
  IOP, individual animal: 23.8 and 23.0 and 24.7
[15]
  IOP, group Average: 24.1
  IOP, individual animal: 23.8 and 22.7 and 24.7
[16]
  IOP, group Average: 24.9
  IOP, individual animal: 24.5 and 23.7 and 26.8
[17]
  IOP, group Average: 20.8
  IOP, individual animal: 17.5 and 18.5 and 24.3
[18]
  IOP, group Average: 21.2
  IOP, individual animal: 19.3 and 20.2 and 24.0
[19]
  IOP, group Average: 20.7
  IOP, individual animal: 19.2 and 20.0 and 23.0
[20]
  IOP, group Average: 21.2
  IOP, individual animal: 20.0 and 20.8 and 22.7
[21]
  IOP, group Average: 22.8
  IOP, individual animal: 23.2 and 19.8 and 23.8 and 24.8
[22]
  IOP, group Average: 23.2
  IOP, individual animal: 23.3 and 21.7 and 24.2 and 24.5
